# Marks after values point to notes of the source that are not given here.
# Experiments:
# [1] = tested on: Panc 05.04 (pancreas cancer); test: Chou and Talalay combination assay with beta-caryophyllene; assay type: cell-based, Human; conditions: in combination with beta-caryophyllene in ethanol (40-150 mM), 48 h
# Protocol: Agent: […] Each solution was prepared fresh and use within 1 hour after preparation. 5 μL of each test article were added to 1 mL of culture medium for a final concentration of 0.5% of solvent and this concentration have no toxic effect on cells. Cells: The Panc 05.04 cell line was used. Cells were harvested using trypsine-EDTA. […] Cells were plated in 96-well microplates (BD Falcon) at a density of 7.5×10^3 cells per well for Chou and Talalay assay in 100 μL of culture medium and were allowed to adhere for 24 hours before treatment. Proliferation assay: Increasing concentrations of the anticancer agents and/or beta-caryophyllene were added to 96-well plate (100 μL per well). The final concentration of solvent in the culture medium was maintained below 0.5% (volume/volume) to avoid solvent toxicity. […] The cells were incubated for 48 h at 37° C. and 5% CO2. Cytotoxicity was assessed using the resazurin reduction test (8). […] Resazurin was then removed. Data analysis: Results were analyzed using the Chou and Talalay method (9) and may be interpreted as follow: […]
# [2] = Toxicity of Formulation A and/or Taxotere treatments (body weight) on Lewis lung cancer-bearing mice; conditions: for Loss of weight > 20% (n = 10): day 1 to day 8
# Protocol: The toxicity of the treatments described in Table 7 above was determined using the body weight of mice.
# Lewis lung carcinoma [3] = test: In vivo potentiating effect of Formulation A on Taxotere against Lewis lung cancer-bearing mice; conditions: i.v. days 1-4, day 18
# Protocol: (§1) Cells: The Lewis lung carcinoma cell line was used (#CRL-1642, lot #4372266, ATCC). […] Cells were then harvested with up and down only. Cells were counted using a hemacytometer and resuspended in DMEM medium without SVF.
# Mice: 6-weeks old C57BL/6 male mice were used (Charles Rivers Inc., St-Constant, QC).
# (§2) Inoculation: 100 μL of a solution containing 1×10^7 cells/mL were inoculated subcutaneously in each mouse.
# The mice of each group (n=10) were treated with a volume of 100 μL containing saline, Formulation A of Example 5 above (hereinafter referred to as Formulation A), Taxotere™ or a combination of Formulation A with Taxotere™ in doses presented in Table 7 below: […]
# Values of p<0.05 were considered statistically significant. The length and the width of tumor were measured with calliper on day 10 to day 18.
# B16 (murine melanoma) = test: Chou and Talalay combination assay with beta-caryophyllene; assay type: cell-based; conditions: anticancer drug in combination with beta-caryophyllene; Chou and Talalay CI; 48 h
# In short: (§3)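 48 h, 37° C, 5% CO2; anticancer agent ± beta-caryophyllene at increasing concentrations; solvent <0.5% v/v; solutions used within 1 h.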
# [4] = tested on: GL-261 (murine glioblastoma); test: as above; assay type: cell-based; conditions: anticancer drug in combination with beta-caryophyllene; Chou and Talalay CI; 48 h
# In short: as §3
# MEL-2 (human melanoma) = test: as above; assay type: cell-based; conditions: anticancer drug in combination with beta-caryophyllene; Chou and Talalay CI; 48 h
# In short: as §3
# [5] = tested on: U-251 (human glioblastoma); test: as above; assay type: cell-based; conditions: anticancer drug in combination with beta-caryophyllene; Chou and Talalay CI; 48 h
# In short: as §3
# [6] = tested on: MDA-MB-231 (breast cancer); test: as above; assay type: cell-based, human; conditions: anticancer drug in combination with beta-caryophyllene; Chou and Talalay CI; 48 h
# In short: as §3
# PA-1 (ovary cancer) = test: as above; assay type: cell-based, human; conditions: anticancer drug in combination with beta-caryophyllene; Chou and Talalay CI; 48 h
# In short: as §3
# MCF-7 (breast cancer) = test: as above; assay type: cell-based, human; conditions: anticancer drug in combination with beta-caryophyllene; Chou and Talalay CI; 48 h
# In short: as §3
# DLD-1 (colon cancer) = test: as above; assay type: cell-based, human; conditions: anticancer drug in combination with beta-caryophyllene; Chou and Talalay CI; 48 h
# In short: as §3
# A-549 (lung cancer) = test: as above; assay type: cell-based, human; conditions: anticancer drug in combination with beta-caryophyllene; Chou and Talalay CI; 48 h
# In short: as §3
# Lewis lung carcinoma [7] = test: In vivo potentiating effect of Formulation A on paclitaxel against Lewis lung cancer-bearing mice; conditions: for CTW (estimated weight) / T/C (estimated weight) / T/C (real weight) / TGI (estimated weight) / TGI (real weight) / Tumor weight (real weight): i.v. day 1 to 4, day 18
# Protocol: as §1
# Mice: 6-weeks old C57BL/6 male mice were used Charles Rivers Inc., St-Constant, QC). […] The mice of each group (n=10) were treated with a volume of 100 μL containing saline, Formulation A (see Example 5), paclitaxel or combination of the Formulation A with paclitaxel.
# as §2
# Treatment: Lewis lung carcinoma cells were inoculated subcutaneous on C57BL/6 mice on day 0. The potentiating effect of the Formulation A combined with paclitaxel was evaluated against Lewis lung carcinoma-bearing mice (C57BL/6). The mice of each group (n=10) were treated with a volume of 100 μL containing saline, Formulation A, paclitaxel or a combination of Formulation A with paclitaxel in doses presented in Table 10 below: The treatments were administered intravenous on day 1 to 4. The length and the width of tumor were measured with calliper on day 8 to day 18. In the end of the experiment (day 18), the tumors were extracted and weighed.
# Values of p<0.05 were considered statistically significant.
# (b) Tumor weight (TW): The TW of each tumor was measured on day 18 after the sacrifice of each mouse. TW values were averaged within each group. […] Values of p<0.05 were considered statistically significant.
structure (smiles),measurement,setting,value
"CC[C@@]1(O)C(=O)OCc2c1cc1n(c2=O)Cc2cc3ccccc3nc2-1 [Camptothecin, camptothecin]",Potentiating activity Panc 05.04,[1],Potentiating > IC60
CCc1c2c(nc3ccc(OC(=O)N4CCC(N5CCCCC5)CC4)cc13)-c1cc3c(c(=O)n1C2)COC(=O)[C@]3(O)CC [Irinotecan],Potentiating activity Panc 05.04,[1],Potentiating > IC50
"CC(=O)O[C@@]12CO[C@@H]1C[C@H](O)[C@@]1(C)C(=O)[C@H](O)C3=C(C)[C@@H](OC(=O)[C@H](O)[C@@H](NC(=O)OC(C)(C)C)c4ccccc4)C[C@@](O)([C@@H](OC(=O)c4ccccc4)[C@H]21)C3(C)C [Taxotere ™, docetaxel]",loss of weight (day 7) with regard to the initial weight (day 1),[2]; Taxotere 5 mg/kg,about 0.55%
same,Loss of weight > 20% (n = 10),[2]; Taxotere 5 mg/kg,0
same,loss of weight (day 7) with regard to the initial weight (day 1),[2]; Taxotere 10 mg/kg,~3.33%
same,Loss of weight > 20% (n = 10),[2]; Taxotere 10 mg/kg,0
same,loss of weight (day 7) with regard to the initial weight (day 1),[2]; Taxotere 15 mg/kg,about 13%
same,Loss of weight > 20% (n = 10),[2]; Taxotere 15 mg/kg,7
same,CTW,Lewis lung carcinoma [3]; Taxotere 5 mg/kg,380 ± 116 mg
same,T/C,Lewis lung carcinoma [3]; Taxotere 5 mg/kg,89%
same,TGI,Lewis lung carcinoma [3]; Taxotere 5 mg/kg,11%
same,TGI,"Lewis lung carcinoma [3]; Taxotere 5 mg/kg, listed as Taxotere™",about 11%
same,CTW,Lewis lung carcinoma [3]; Taxotere 10 mg/kg,346 ± 107 mg
same,T/C,Lewis lung carcinoma [3]; Taxotere 10 mg/kg,81%
same,TGI,Lewis lung carcinoma [3]; Taxotere 10 mg/kg,19%
same,CTW,Lewis lung carcinoma [3]; Taxotere 15 mg/kg,178 ± 112^c mg
same,T/C,Lewis lung carcinoma [3]; Taxotere 15 mg/kg,42%
same,TGI,Lewis lung carcinoma [3]; Taxotere 15 mg/kg,58%
same,TGI,"Lewis lung carcinoma [3]; Taxotere 15 mg/kg, listed as Taxotere™",about 58%
same,Potentiating activity Panc 05.04,[1],Potentiating > IC10
"CC(=O)O[C@H]1C(=O)[C@@]2(C)[C@H]([C@H](OC(=O)c3ccccc3)[C@]3(O)C[C@H](OC(=O)[C@H](O)[C@@H](NC(=O)c4ccccc4)c4ccccc4)C(C)=C1C3(C)C)[C@]1(OC(C)=O)CO[C@@H]1C[C@@H]2O [Paclitaxel, paclitaxel]",Potentiating activity B16,B16 (murine melanoma),(1) (Very High: potentiating or additive activity to IC20 and CI < 0.6 to IC50)
same,Potentiating activity GL-261,[4],(2) (High: CI < 0.5 to IC50)
same,Potentiating activity MEL-2,MEL-2 (human melanoma),(3) (Moderate: 0.5 < CI < 0.8 to IC50)
same,Potentiating activity U-251,[5],(1) (Very High: potentiating or additive activity to IC20 and CI < 0.6 to IC50)
same,Potentiating activity MDA,[6],(3) (Moderate: 0.5 < CI < 0.8 at IC50)
same,Potentiating activity PA-1,PA-1 (ovary cancer),(2) (High: CI < 0.5 to IC50)
same,Potentiating activity MCF-7,MCF-7 (breast cancer),(1) (Very High: CI equal or below 1 at IC20 and Cl below 0.6 to IC50)
same,Potentiating activity DLD-1,DLD-1 (colon cancer),(2) (High: CI below 0.5 at IC50)
same,Potentiating activity A-549,A-549 (lung cancer),(3) (Moderate: 0.5 < CI < 0.8 at IC50)
same,Potentiating activity Panc 05.04,[1],Potentiating > IC80
same,CTW (estimated weight),Lewis lung carcinoma [7]; paclitaxel 10 mg/kg,568 ± 155 mg
same,T/C (estimated weight),Lewis lung carcinoma [7]; paclitaxel 10 mg/kg,81%
same,T/C (real weight),Lewis lung carcinoma [7]; paclitaxel 10 mg/kg,87%
same,TGI (estimated weight),Lewis lung carcinoma [7]; paclitaxel 10 mg/kg,19%
same,TGI (real weight),Lewis lung carcinoma [7]; paclitaxel 10 mg/kg,13%
same,Tumor weight (real weight),Lewis lung carcinoma [7]; paclitaxel 10 mg/kg,410 ± 90 mg
same,CTW (estimated weight),Lewis lung carcinoma [7]; paclitaxel 20 mg/kg,510 ± 274 mg
same,T/C (estimated weight),Lewis lung carcinoma [7]; paclitaxel 20 mg/kg,73%
same,T/C (real weight),Lewis lung carcinoma [7]; paclitaxel 20 mg/kg,91%
same,TGI (estimated weight),Lewis lung carcinoma [7]; paclitaxel 20 mg/kg,27%
same,TGI (real weight),Lewis lung carcinoma [7]; paclitaxel 20 mg/kg,9%
same,Tumor weight (real weight),Lewis lung carcinoma [7]; paclitaxel 20 mg/kg,420 ± 350 mg
same,CTW (estimated weight),Lewis lung carcinoma [7]; paclitaxel 30 mg/kg,"446 ± 118^c,d mg"
same,T/C (estimated weight),Lewis lung carcinoma [7]; paclitaxel 30 mg/kg,64%
same,T/C (real weight),Lewis lung carcinoma [7]; paclitaxel 30 mg/kg,81%
same,TGI (real weight),Lewis lung carcinoma [7]; paclitaxel 30 mg/kg,19%
same,Tumor weight (real weight),Lewis lung carcinoma [7]; paclitaxel 30 mg/kg,380 ± 200 mg
same,effect on tumor growth (in words),Lewis lung carcinoma [7]; paclitaxel 10 and 20 mg/kg alone,do not inhibit significantly tumor growth

# From US20110008465A1, “SESQUITERPENE FORMULATIONS, KITS AND METHODS OF USE THEREOF” (priority 2007, published 2011)
